Experimental data published in ChEMBL document CHEMBL1201862, “PubChem BioAssay data set” (2004).
Active and inactive are the calls of the source.

Legend:
[1] = growth suppression of PTEN-null colon cells, dose response, cell-based, HCT116 PTEN knockout (AID 1047); format: functional;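 also: HCT116 colon tumor cells with PTEN knocked out; cells exposed to compound for 60 hours before readout; potency for loss of cell viability measured by luminescence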
[2] = growth suppression of beta-catenin-knockout colon cells, dose response, cell-based, HCT116, human colon tumor (AID 1045); format: functional;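 also: HCT116 colon tumor cells with beta catenin knocked out; cells exposed to compound for 60 hours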
[3] = biological target: FAD-linked sulfhydryl oxidase ALR (Homo sapiens, UniProt P55789); assay: inhibitors of human ALR sulfhydryl oxidase, dose response, biochemical, H2O2 detection, luminescence, cherry-pick (AID 493248)
FAD-linked sulfhydryl oxidase ALR, sequence (P55789 whole entry): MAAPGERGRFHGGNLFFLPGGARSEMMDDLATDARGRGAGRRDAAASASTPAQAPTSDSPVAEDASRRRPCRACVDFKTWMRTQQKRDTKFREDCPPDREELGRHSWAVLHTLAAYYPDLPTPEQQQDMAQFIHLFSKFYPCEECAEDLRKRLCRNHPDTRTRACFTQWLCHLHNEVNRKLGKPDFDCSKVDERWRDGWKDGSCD

cells [4] = format: functional, cell-based
cells [5] = format: functional, cell-based; remark: listed apart in the source
Cytochrome P450 1A2 = biological target: T1, Cytochrome P450 1A2 (Homo sapiens, UniProt P05177);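 also: PubChem cytochrome P450 panel assay, CYP1A2 panel member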
T1 sequence (P05177 whole entry): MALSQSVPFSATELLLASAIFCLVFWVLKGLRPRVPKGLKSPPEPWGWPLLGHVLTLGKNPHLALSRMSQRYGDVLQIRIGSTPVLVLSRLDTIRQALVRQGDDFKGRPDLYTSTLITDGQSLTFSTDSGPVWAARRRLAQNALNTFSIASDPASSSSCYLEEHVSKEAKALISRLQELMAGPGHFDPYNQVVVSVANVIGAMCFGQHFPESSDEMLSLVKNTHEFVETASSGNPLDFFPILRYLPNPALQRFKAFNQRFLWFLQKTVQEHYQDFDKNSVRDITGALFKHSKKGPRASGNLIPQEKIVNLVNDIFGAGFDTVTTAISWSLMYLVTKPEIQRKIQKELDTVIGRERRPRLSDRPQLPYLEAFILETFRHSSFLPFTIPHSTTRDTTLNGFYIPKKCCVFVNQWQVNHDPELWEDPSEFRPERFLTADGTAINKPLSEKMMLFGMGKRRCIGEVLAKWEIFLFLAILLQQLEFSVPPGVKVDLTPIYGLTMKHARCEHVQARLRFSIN

Cytochrome P450 3A4 = Cytochrome P450 3A4 (Homo sapiens, UniProt P08684);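 also: CYP3A4 tested as one member of a cytochrome P450 panel screen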
Cytochrome P450 3A4, sequence (P08684 whole entry): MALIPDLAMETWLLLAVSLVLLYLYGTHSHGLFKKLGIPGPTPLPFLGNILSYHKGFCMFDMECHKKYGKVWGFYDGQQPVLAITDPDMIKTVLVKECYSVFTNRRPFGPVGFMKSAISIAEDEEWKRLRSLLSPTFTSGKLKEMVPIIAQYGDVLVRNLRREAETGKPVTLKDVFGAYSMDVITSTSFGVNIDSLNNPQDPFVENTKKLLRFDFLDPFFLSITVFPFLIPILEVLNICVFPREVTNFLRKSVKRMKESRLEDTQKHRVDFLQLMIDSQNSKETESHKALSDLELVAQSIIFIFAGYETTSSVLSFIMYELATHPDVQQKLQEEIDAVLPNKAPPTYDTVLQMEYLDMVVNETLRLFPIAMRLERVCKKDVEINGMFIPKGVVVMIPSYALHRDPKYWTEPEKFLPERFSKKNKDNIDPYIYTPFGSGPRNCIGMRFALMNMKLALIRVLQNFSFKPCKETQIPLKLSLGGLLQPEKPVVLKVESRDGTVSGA

Cytochrome P450 2C9 = Cytochrome P450 2C9 (Homo sapiens, UniProt P11712)
Cytochrome P450 2C9, sequence (P11712 whole entry): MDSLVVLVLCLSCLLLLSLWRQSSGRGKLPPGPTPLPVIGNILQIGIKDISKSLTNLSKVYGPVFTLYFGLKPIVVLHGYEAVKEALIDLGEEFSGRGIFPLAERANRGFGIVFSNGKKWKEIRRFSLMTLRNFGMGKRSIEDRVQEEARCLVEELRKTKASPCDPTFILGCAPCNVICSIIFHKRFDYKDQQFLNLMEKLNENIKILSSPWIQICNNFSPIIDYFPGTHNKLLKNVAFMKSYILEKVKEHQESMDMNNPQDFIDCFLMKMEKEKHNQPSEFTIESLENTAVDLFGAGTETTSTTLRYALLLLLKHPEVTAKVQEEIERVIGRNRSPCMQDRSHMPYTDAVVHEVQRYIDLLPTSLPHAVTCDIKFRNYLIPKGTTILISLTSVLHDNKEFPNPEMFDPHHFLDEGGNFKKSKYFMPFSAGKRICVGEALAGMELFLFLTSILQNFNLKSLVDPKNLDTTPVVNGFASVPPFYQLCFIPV

[6] = NIH-3T3 fibroblast cytotoxicity, dose response, cytotoxicity control, cell-based, fluorescence, Alamar Blue, secondary assay (AID 2327); format: functional;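 also: NIH-3T3 mouse fibroblasts cultured with fluconazole at 8 µg/mL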
[7] = C. albicans growth with fluconazole, confirmation, fluorescence, retest (AID 2467); format: functional, cell-based
Paired box protein Pax-8 = Paired box protein Pax-8 (Homo sapiens, UniProt Q06710); assay: inhibitors of PAX8-driven TPO luciferase reporter, dose response, RMG-I cells, cherry-pick (AID 687027); format: functional, cell-based;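 also: luciferase reporter driven by Pax8 target thyroperoxidase promoter measured by SteadyGlo luminescence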
Paired box protein Pax-8, sequence (Q06710 whole entry, the tested form may be a part): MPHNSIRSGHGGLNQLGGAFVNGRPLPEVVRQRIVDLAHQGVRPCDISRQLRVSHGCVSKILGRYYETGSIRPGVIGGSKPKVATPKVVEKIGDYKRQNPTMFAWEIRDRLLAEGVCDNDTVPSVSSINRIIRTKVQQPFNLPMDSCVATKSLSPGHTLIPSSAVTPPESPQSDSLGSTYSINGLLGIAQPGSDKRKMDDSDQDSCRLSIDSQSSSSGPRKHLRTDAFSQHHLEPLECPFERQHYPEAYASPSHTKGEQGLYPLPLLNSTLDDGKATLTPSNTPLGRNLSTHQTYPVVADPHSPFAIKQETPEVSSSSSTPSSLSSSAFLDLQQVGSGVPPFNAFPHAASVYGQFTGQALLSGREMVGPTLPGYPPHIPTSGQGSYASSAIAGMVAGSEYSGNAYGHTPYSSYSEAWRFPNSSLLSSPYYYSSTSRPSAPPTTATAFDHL

[8] = biological target: T2, RNA-binding protein pos-1 (Caenorhabditis elegans, UniProt G5EF15); assay: inhibitors of POS-1/mex-3 RNA binding, dose response, biochemical, fluorescence polarization (AID 1964);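 also: purified POS-1 fused to maltose binding protein made in E. coli; potency of compounds blocking POS-1 binding to fluorescent RNA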
T2 sequence (G5EF15 whole entry): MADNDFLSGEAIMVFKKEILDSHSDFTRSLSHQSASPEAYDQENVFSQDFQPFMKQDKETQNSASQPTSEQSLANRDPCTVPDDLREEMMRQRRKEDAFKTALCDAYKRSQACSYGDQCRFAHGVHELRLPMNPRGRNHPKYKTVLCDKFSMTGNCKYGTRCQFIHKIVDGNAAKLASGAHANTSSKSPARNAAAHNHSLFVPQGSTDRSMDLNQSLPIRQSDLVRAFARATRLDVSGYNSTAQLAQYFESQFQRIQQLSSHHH

[9] = biological target: T3, Rac GTPase-activating protein 1 (Homo sapiens, UniProt Q9H0H5); assay: MgcRacGAP GTPase-activating activity inhibitors, confirmation, biochemical, ADP Hunter fluorescence, primary and confirmatory (AID 624330); format: functional
T3 sequence (Q9H0H5 whole entry): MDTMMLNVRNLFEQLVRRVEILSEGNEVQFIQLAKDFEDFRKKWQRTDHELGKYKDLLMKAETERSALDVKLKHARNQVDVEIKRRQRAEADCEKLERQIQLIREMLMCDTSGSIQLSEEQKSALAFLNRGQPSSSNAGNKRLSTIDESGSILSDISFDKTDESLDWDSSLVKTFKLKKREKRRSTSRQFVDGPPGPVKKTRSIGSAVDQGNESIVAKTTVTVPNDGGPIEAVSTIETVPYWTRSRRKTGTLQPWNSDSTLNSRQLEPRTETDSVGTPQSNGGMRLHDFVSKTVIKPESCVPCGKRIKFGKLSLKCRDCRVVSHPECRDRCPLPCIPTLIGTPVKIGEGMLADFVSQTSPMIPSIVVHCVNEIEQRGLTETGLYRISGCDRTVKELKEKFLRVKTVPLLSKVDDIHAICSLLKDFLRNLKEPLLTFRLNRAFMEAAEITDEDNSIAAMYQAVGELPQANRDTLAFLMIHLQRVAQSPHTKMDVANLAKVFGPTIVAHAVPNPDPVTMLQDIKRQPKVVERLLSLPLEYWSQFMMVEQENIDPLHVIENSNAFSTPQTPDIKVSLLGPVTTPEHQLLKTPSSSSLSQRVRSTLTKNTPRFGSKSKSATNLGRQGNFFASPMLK

[10] = microbe, parasite or virus in culture; format: functional; details: Mycobacterium tuberculosis
[11] = Luminescence Cell-Based Dose Retest to Confirm Inhibitors of Cancer Stem Cells. [Related pubchem assays (depositor defined):AID2717, AID2721]; format: functional; details: Homo sapiens
INS1 = assay: beta cell apoptosis inhibitors, cytokine rescue, dose response, luminescence, retest (AID 449756); format: functional, cell-based; details: Rattus norvegicus;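 also: cell death triggered by IL-1 beta plus TNF-alpha plus IFN-gamma mixture; protective hits raise ATP signal compared with cytokine alone wells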
[12] = Luminescence Cell-Based Dose Response HTS to Identify Activators of Luciferase Translation or Activity in H4 […] Cells. [Related pubchem assays: 1829 (Project Summary), 1814 (Primary HTS)]; format: functional
H4 = assay: Luminescence Cell-Based Dose Response HTS to Identify Activators of 5'UTR Stem-Loop Driven Prion Protein mRNA Translation in H4 Neuroglioblastoma Cells. [Related pubchem assays: 1829 (Project Summary), 1814 (Primary HTS)]; format: functional; details: Homo sapiens
H9c2 = assay: cells; format: functional, cell-based; details: Rattus norvegicus, H9c2, Myocardium;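 also: confirmatory concentration-response retest of ultra-high-throughput screening hits for modulation of myocardial damage; cell death induced by hydrogen peroxide oxidative stress; compound pretreatment for 60 min then peroxide exposure for 2 h; potency is for protecting the cells against peroxide damage rather than for killing them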
[13] = inhibitors of firefly luciferase expression or activity, dose response, H4 neuroglioma cells, luminescence (AID 1990); format: functional, cell-based
[14] = Luminescence Cell-Based Dose Response HTS to Identify Inhibitors of 5'UTR Stem-Loop Driven Prion Protein mRNA Translation in H4 Neuroglioblastoma Cells. [Related pubchem assays: 1827 (Project Summary), 1813 (Primary HTS)]; format: functional
[15] = inhibitors of SNCA 5'UTR-driven reporter translation, confirmation, H4 neuroglioma cells, luminescence (AID 1988); format: functional, cell-based

Compound: CCN(CC)S(=O)(=O)c1cc(-c2nnc(-c3ccc(Br)cc3)o2)ccc1Cl
- EC50 [1]: 28.1 µM (active)
- EC50 [2]: 21.5 µM (active)

Compound: Cc1c(CCC(=O)N[C@@H](C)C(=O)O)c(=O)oc2c(C)c3oc4c(c3cc12)CCCC4
- AC50 [3]: 3.72 µM (active)

Compound: COc1ccc(C(=O)CSc2nncn2C)cc1
- EC50 (cells [4]): > 350 µM (not active)
- EC50 (cells [5]): > 350 µM (not active)

Compound: CCn1c(C)cc(/C=C2\SC(=O)N(CC(=O)Nc3ccc(C)c(C)c3)C2=O)c1C
- EC50 [1]: 210 µM (active)
- EC50 [2]: 24.1 µM (active)
- AC50 (Cytochrome P450 1A2): 8.91 µM (inconclusive)
- AC50 (Cytochrome P450 3A4): 1 µM (inconclusive)
- AC50 (Cytochrome P450 2C9): 1.58 µM (inconclusive)

Compound: CC(C(=O)Nc1ccc(S(N)(=O)=O)cc1)N1CCc2ccccc21 (stereo unspecified)
- AC50 [3]: 1.8 µM (active)

Compound: c1ccc(-c2ccccc2OCCCN2CCCCCC2)cc1
- EC50 [6]: > 150 µM (inactive)
- EC50 [7]: > 38 µM (not active)

Compound: C[C@@H]1CN([C@H](C)CO)C(=O)c2cc(NC(=O)Nc3ccc(C(F)(F)F)cc3)ccc2O[C@@H](C)CCCCO[C@H]1CN(C)C(=O)Nc1ccc(F)cc1
- AC50 (Paired box protein Pax-8): 1.41 µM (active)

Compound: Oc1ccc(/C=N/Nc2[nH]cnc3ncnc2-3)cc1
- EC50 [8]: > 300 µM (not active)
- IC50 [9]: 11.6 µM (active)

Compound: O=C(Nc1ccc(F)cc1)c1cnc(-c2ccccc2)nc1-c1ccccc1
- EC50 [1]: 10 µM (active)
- EC50 [2]: 9.24 µM (active)

Compound: COc1ccc(CNS(=O)(=O)c2cc3c4c(c2)C(C)C(=O)N4CCC3)cc1 (stereo unspecified)
- EC50 (cells [4]): > 350 µM (not active)
- EC50 (cells [5]): > 350 µM (not active)

Compound: Cc1oc(-c2ccc(Cl)cc2)cc1/C(O)=C(C#N)/C=N/c1cccc(OC(F)(F)F)c1
- EC50 (cells [4]): > 350 µM (not active)
- EC50 (cells [5]): > 350 µM (not active)

Compound: Cc1cccc(NC(=O)CC23CC4CC(C2)CC(n2nnc(C)n2)(C4)C3)c1
- AC50 (Paired box protein Pax-8): 37.1 µM (active)

Compound: CC(OC(=O)COc1ccc(Nc2ccccc2)cc1)C(=O)N(C)c1ccccc1 (stereo unspecified)
- EC50 (cells [4]): > 350 µM (not active)
- EC50 (cells [5]): 30.5 µM (active)

Compound: CCOC(=O)c1c(NC(=O)CN2CCN(C(=O)c3ccco3)CC2)sc2c1CCCC2
- EC50 [6]: > 150 µM (inactive)
- EC50 [7]: > 38 µM (not active)
- EC50 [1]: 35.1 µM (active)
- EC50 [2]: 28.7 µM (active)

Compound: C[C@H]1CCCCO[C@@H](CN(C)C(=O)Nc2ccc(C(F)(F)F)cc2)[C@@H](C)CN([C@@H](C)CO)C(=O)c2cc(NS(=O)(=O)c3cn(C)cn3)ccc2O1
- AC50 (Paired box protein Pax-8): 17.9 µM (active)

Compound: O=C(CCc1nnc(-c2ccccc2)o1)c1ccc(Cl)cc1
- EC50 (cells [4]): > 350 µM (not active)

Compound: CC(C)n1cnc2c(NCc3ccccc3)cc(Cc3ccc(F)cc3)cc21
- CC50 [10]: > 40 µM (active)
- AC50 [11]: 1.78 µM (active)

Compound: O=c1[nH]c(=O)n(Cc2ccccc2)c2nc(-c3ccc(Oc4ccc(F)cc4)c([N+](=O)[O-])c3)n(CCO)c12
- CC50 [10]: 13.9 µM (active)
- EC50 [1]: 7.51 µM (active)
- EC50 [2]: 8.03 µM (active)

Compound: O=C1/C(=C\c2cccnc2)CN(Cc2ccccc2)C/C1=C\c1cccnc1
- EC50 [1]: 1.29 µM (active)
- EC50 [2]: 0.429 µM (active)
- AC50 [11]: 2.06 µM (active)
- AC50 (INS1): 4.87 µM (active)

Compound: O=C(COC(=O)c1ccccc1[N+](=O)[O-])c1ccc2c(c1)OCO2
- EC50 [12]: > 120 µM (not active)
- EC50 (H4): 36 µM (active)

Compound: COc1ccc(COc2cc(-c3cccc(OC)c3)nc3ccc(NC(=O)c4cccnc4)cc23)cc1
- IC50 (H9c2): > 79 µM (inactive)

Compound: Cc1ccc2c(c1)C1NC(S)=NC(C)(O2)C1C(=O)Nc1ccc(Cl)cc1 (stereo unspecified)
- EC50 (cells [4]): > 350 µM (not active)
- EC50 (cells [5]): > 350 µM (not active)

Compound: COc1nc(N/N=C/c2cc3c(cc2Br)OCO3)nc(N2CCOCC2)n1
- IC50 (H9c2): > 79 µM (inactive)

Compound: COC(=O)c1ccc(/C=C/c2c(-c3ccsc3)oc3ccc(N4CCOCC4)cc23)cc1
- CC50 [10]: > 40 µM (active)
- AC50 [11]: 3.33 µM (active)

Compound: CCOCCCNS(=O)(=O)c1ccc(NC(=O)N2c3ccccc3Sc3ccccc32)cc1
- CC50 [10]: 36.6 µM (active)

Compound: CCCC(=O)Nc1ccc2c(c1)C(=O)N(C)C[C@@H](OC)[C@H](C)CN(Cc1ccc(-c3ccccn3)cc1)[C@H](C)CO2
- AC50 (Paired box protein Pax-8): 28.7 µM (active)

Compound: CCc1cc2c(=O)c(-c3ccc4c(c3)OCCO4)coc2cc1OS(C)(=O)=O
- EC50 [1]: 14.6 µM (active)
- EC50 [2]: 18 µM (active)

Compound: CN1CCN(C2Cc3ccc(F)cc3Sc3cc(F)c(Cl)cc32)CC1 (stereo unspecified)
- EC50 [13]: > 120 µM (not active)
- EC50 (cells [4]): > 350 µM (not active)
- EC50 [14]: > 120 µM (not active)
- EC50 [15]: > 60 µM (not active)
- EC50 (cells [5]): 20.1 µM (active)
- AC50 [11]: 6.08 µM (active)

Compound: CCN(C[C@H]1N[C@@](CC)(C(=O)OC)[C@H]2C(=O)N(Cc3ccccc3)C(=O)[C@@H]12)S(=O)(=O)c1ccc(F)cc1
- IC50 (H9c2): 13.9 µM (active)

Compound: Nc1c(C(=O)NC2CCCC2)c2nc3ccccc3nc2n1N
- IC50 (H9c2): > 79 µM (inactive)

Compound: CC(C)[C@H](NC(=O)c1ccco1)C(=O)OCc1cc(=O)n2c(n1)sc1ccccc12
- EC50 (cells [4]): > 350 µM (not active)
- EC50 (cells [5]): > 350 µM (not active)

Compound: CCOC(=O)c1cnc2ccc(C(=O)OC)cc2c1NCCc1ccc(OC)c(OC)c1
- IC50 (H9c2): > 79 µM (inactive)

Compound: c1ccc(CSc2nnc(-c3cccs3)n2Cc2ccco2)cc1
- EC50 [6]: > 150 µM (inactive)
- EC50 [7]: > 38 µM (not active)

Compound: Cc1nnc(S)n1/N=C/c1cccc(OCc2ccccc2)c1
- CC50 [10]: > 40 µM (active)
